According to BindingDB's records for doi:10.1021/jm000023o (Cocensys, 2000):

Tests used:
[1] = Concentration required for 50% Inhibition of responses at cloned NR1A/2AB N-methyl-D-aspartate (NMDA) expressed in Xenopus oocytes
[2] = as above; remark: listed apart in the source

## Oc1ccc(C#CCN2CCC(Cc3ccccc3)CC2)cc1 [4-[3-(4-Benzyl-piperidin-1-yl)-prop-1-ynyl]-phenol]
[1]
  IC50: 0.1 µM

## C(#Cc1ccc2cc[nH]c2c1)CCN1CCC(Cc2ccccc2)CC1 [6-[4-(4-Benzyl-piperidin-1-yl)-but-1-ynyl]-1H-indole]
[2]
  IC50: 6.1 µM
